According to patent US10765114B2, “4-amino-6-(pyridyl and 2-substitutedphenyl)-picolinates and 6-amino-2-(pyridyl and 2-substitutedphenyl)-pyrimidine-4-carboxylates and their use as herbicides” (Dow AgroSciences LLC, priority 2013, dated 2020):

What was measured:
Experiment in all cases: Postemergence Herbicidal Activity in Direct Seeded Rice
Type in all cases: in vivo
[1] = tested on: SCPJU: Japanese bulrush, Schoenoplectus juncoides; details: for Visual Growth Reduction (%) 21 Days After Application, SCPJU: postemergence, direct seeded rice; for GR50, SCPJU: Growth reduction of 50% of plant growth; for GR50, SCPJU / GR80, SCPJU: probit analysis; for GR80, SCPJU: Growth reduction of 80% of plant growth
Description: (§1) Seeds or nutlets of the desired test plant species were planted in a soil matrix prepared by mixing a loam soil (43 percent silt, 19 percent clay, and 38 percent sand, with a pH of about 8.1 and an organic matter content of about 1.5 percent) and river sand in an 80 to 20 ratio. The soil matrix was contained in plastic pots with a surface area of 139.7 cm^2. When required to ensure good germination and healthy plants, a fungicide treatment and/or other chemical or physical treatment was applied. The plants were grown for 10-17 days in a greenhouse with an approximate 14-h photoperiod which was maintained at about 29° C. during the day and 26° C. during the night. Nutrients and water were added on a regular basis and supplemental lighting was provided with overhead metal halide 1000-Watt lamps as necessary. The plants were employed for testing when they reached the second or third true leaf stage.
(§2) A weighed amount, determined by the highest rate to be tested, of each test compound was placed in 25 mL glass vials and dissolved in a volume of 97:3 v/v acetone-DMSO to obtain 12× stock solutions. […] The concentrated stock solutions were added to the spray solutions so that the final acetone and DMSO concentrations were 16.2% and 0.5%, respectively. Spray solutions were diluted to the appropriate final concentrations with the addition of 10 mL of an aqueous mixture of 1.5% (v/v) Agri-dex crop oil concentrate. The final spray solutions contained 1.25% (v/v) Agri-dex crop oil concentrate. Compound requirements are based upon a 12 mL application volume at a rate of 187 L/ha. Formulated compounds were applied to the plant material with an overhead Mandel track sprayer equipped with 8002E nozzles calibrated to deliver 187 L/ha over an application area of 0.503 square meters (m^2) at a spray height of 18 inches (43 cm) above average plant canopy height. Control plants were sprayed in the same manner with the solvent blank.
(§3) The treated plants and control plants were placed in a greenhouse as described above and watered by sub-irrigation to prevent wash-off of the test compounds. After 20-22 days, the condition of the test plants, compared with that of the untreated plants, was determined visually and scored on a scale of 0 to 100 percent where 0 corresponds to no injury and 100 corresponds to complete kill and presented as indicated in Table A.
(§4) By applying the well-accepted probit analysis as described by J. Berkson in Journal of the American Statistical Society, 48, 565 (1953) and by D. Finney in “Probit Analysis” Cambridge University Press (1952), herbicidal injury of a specific compound at various rates can be used to calculate GR20, GR50, GR80 and GR90 values, which are defined as growth reduction factors that correspond to the effective dose of herbicide required to provide plant growth reduction (GR) of 20 percent, 50 percent, 80 percent and 90 percent, respectively. Probit analysis was applied to data collected from multiple dose rates of individual compounds utilizing the procedures explained in the following examples. The analysis of those dose rates is captured in the following tables

[2] = tested on: SEBEX: hemp sesbania, Sesbania exaltata; details: for Visual Growth Reduction (%) 21 Days After Application, SEBEX: postemergence, direct seeded rice; for GR50, SEBEX: Growth reduction of 50% of plant growth; for GR50, SEBEX / GR80, SEBEX: probit analysis; for GR80, SEBEX: Growth reduction of 80% of plant growth
Description: as §1, §2, §3, §4

[3] = tested on: LEFSS: sprangletop including Chinese sprangletop (Leptochloa chinensis), green sprangletop (Leptochloa dubia); details: for Visual Growth Reduction (%) 21 Days After Application, LEFSS: postemergence, direct seeded rice; for GR50, LEFSS: Growth reduction of 50% of plant growth; for GR50, LEFSS / GR80, LEFSS: probit analysis; for GR80, LEFSS: Growth reduction of 80% of plant growth
Description: as §1, §2, §3, §4

[4] = tested on: BRAPP: broadleaf signalgrass, Brachiaria platyphylla; details: for Visual Growth Reduction (%) 21 Days After Application, BRAPP: postemergence, direct seeded rice; for GR50, BRAPP: Growth reduction of 50% of plant growth; for GR50, BRAPP / GR80, BRAPP: probit analysis; for GR80, BRAPP: Growth reduction of 80% of plant growth
Description: as §1, §2, §3, §4

[5] = tested on: ORYSS: Oryza sativa; details: for Visual Growth Reduction (%) 21 Days After Application, ORYSS: postemergence, direct seeded rice; for GR20, ORYSS: Growth reduction of 20% of plant growth, probit analysis
Description: as §1, §2, §3, §4

[6] = tested on: CYPSS: sedge including small-flower flatsedge (Cyperus difformis), yellow nutsedge (Cyperus esculentus), rice flatsedge (Cyperus iria); details: for Visual Growth Reduction (%) 21 Days After Application, CYPSS: postemergence, direct seeded rice; for GR50, CYPSS: Growth reduction of 50% of plant growth; for GR50, CYPSS / GR80, CYPSS: probit analysis; for GR80, CYPSS: Growth reduction of 80% of plant growth
Description: as §1, §2, §3, §4

[7] = tested on: ECHSS: including barnyardgrass, (Echinochloa crus-galli), junglerice, (Echinochloa colonum); details: for Visual Growth Reduction (%) 21 Days After Application, ECHSS: postemergence, direct seeded rice; for GR50, ECHSS: Growth reduction of 50% of plant growth; for GR50, ECHSS / GR80, ECHSS: probit analysis; for GR80, ECHSS: Growth reduction of 80% of plant growth
Description: as §1, §2, §3, §4

Nc1c(Cl)c(C(=O)O)nc(-c2ccc(C(F)(F)F)nc2)c1Cl [Compound 33]
Visual Growth Reduction (%) 21 Days After Application, SCPJU ([1]; 35 g ai/ha): A (95-100)
Visual Growth Reduction (%) 21 Days After Application, SCPJU ([1]; 70 g ai/ha): A (95-100)
GR50, SCPJU [1]: <17.5 g ai/ha
GR80, SCPJU [1]: <17.5 g ai/ha
Visual Growth Reduction (%) 21 Days After Application, SEBEX ([2]; 35 g ai/ha): A (95-100)
Visual Growth Reduction (%) 21 Days After Application, SEBEX ([2]; 70 g ai/ha): A (95-100)
GR50, SEBEX [2]: 1 g ai/ha
GR80, SEBEX [2]: 1 g ai/ha
Visual Growth Reduction (%) 21 Days After Application, LEFSS ([3]; 35 g ai/ha): E (45-59)
Visual Growth Reduction (%) 21 Days After Application, LEFSS ([3]; 70 g ai/ha): C (75-84)
GR50, LEFSS [3]: 30 g ai/ha
GR80, LEFSS [3]: 77 g ai/ha
Visual Growth Reduction (%) 21 Days After Application, BRAPP ([4]; 35 g ai/ha): A (95-100)
Visual Growth Reduction (%) 21 Days After Application, BRAPP ([4]; 70 g ai/ha): A (95-100)
GR50, BRAPP [4]: 3 g ai/ha
GR80, BRAPP [4]: 11 g ai/ha
Visual Growth Reduction (%) 21 Days After Application, ORYSS ([5]; 35 g ai/ha): D (60-74)
Visual Growth Reduction (%) 21 Days After Application, ORYSS ([5]; 70 g ai/ha): C (75-84)
GR20, ORYSS [5]: 8 g ai/ha
Visual Growth Reduction (%) 21 Days After Application, CYPSS ([6]; 35 g ai/ha): A (95-100)
Visual Growth Reduction (%) 21 Days After Application, CYPSS ([6]; 70 g ai/ha): A (95-100)
GR50, CYPSS [6]: 4 g ai/ha
GR80, CYPSS [6]: 7 g ai/ha
Visual Growth Reduction (%) 21 Days After Application, ECHSS ([7]; 35 g ai/ha): C (75-84)
Visual Growth Reduction (%) 21 Days After Application, ECHSS ([7]; 70 g ai/ha): A (95-100)
GR50, ECHSS [7]: 1 g ai/ha
GR80, ECHSS [7]: 1 g ai/ha

COC(=O)c1nc(-c2ccc(C(F)(F)F)nc2)c(C)c(N)c1Cl [Compound 32]
Visual Growth Reduction (%) 21 Days After Application, SCPJU ([1]; 35 g ai/ha): A (95-100)
Visual Growth Reduction (%) 21 Days After Application, SCPJU ([1]; 70 g ai/ha): A (95-100)
GR50, SCPJU [1]: <17.5 g ai/ha
GR80, SCPJU [1]: <17.5 g ai/ha
Visual Growth Reduction (%) 21 Days After Application, SEBEX ([2]; 35 g ai/ha): A (95-100)
Visual Growth Reduction (%) 21 Days After Application, SEBEX ([2]; 70 g ai/ha): A (95-100)
GR50, SEBEX [2]: 3 g ai/ha
GR80, SEBEX [2]: 9 g ai/ha
Visual Growth Reduction (%) 21 Days After Application, LEFSS ([3]; 35 g ai/ha): F (30-44)
Visual Growth Reduction (%) 21 Days After Application, LEFSS ([3]; 70 g ai/ha): E (45-59)
GR50, LEFSS [3]: 59 g ai/ha
GR80, LEFSS [3]: 133 g ai/ha
Visual Growth Reduction (%) 21 Days After Application, BRAPP ([4]; 35 g ai/ha): B (85-94)
Visual Growth Reduction (%) 21 Days After Application, BRAPP ([4]; 70 g ai/ha): B (85-94)
GR50, BRAPP [4]: 14 g ai/ha
GR80, BRAPP [4]: 35 g ai/ha
Visual Growth Reduction (%) 21 Days After Application, ORYSS ([5]; 35 g ai/ha): G (0-29)
Visual Growth Reduction (%) 21 Days After Application, ORYSS ([5]; 70 g ai/ha): F (30-44)
GR20, ORYSS [5]: 36 g ai/ha
Visual Growth Reduction (%) 21 Days After Application, CYPSS ([6]; 35 g ai/ha): A (95-100)
Visual Growth Reduction (%) 21 Days After Application, CYPSS ([6]; 70 g ai/ha): A (95-100)
GR50, CYPSS [6]: 1 g ai/ha
GR80, CYPSS [6]: 2 g ai/ha
Visual Growth Reduction (%) 21 Days After Application, ECHSS ([7]; 35 g ai/ha): B (85-94)
Visual Growth Reduction (%) 21 Days After Application, ECHSS ([7]; 70 g ai/ha): A (95-100)
GR50, ECHSS [7]: 21 g ai/ha
GR80, ECHSS [7]: 35 g ai/ha

COC(=O)c1nc(-c2ccc(Cl)nc2F)c(F)c(N)c1Cl [Compound 45]
GR50, SCPJU [1]: 1 g ai/ha
GR80, SCPJU [1]: 1 g ai/ha
Visual Growth Reduction (%) 21 Days After Application, SEBEX ([2]; 35 g ai/ha): A (95-100)
Visual Growth Reduction (%) 21 Days After Application, SEBEX ([2]; 70 g ai/ha): A (95-100)
GR50, SEBEX [2]: 1 g ai/ha
GR80, SEBEX [2]: 2 g ai/ha
Visual Growth Reduction (%) 21 Days After Application, LEFSS ([3]; 35 g ai/ha): G (0-29)
Visual Growth Reduction (%) 21 Days After Application, LEFSS ([3]; 70 g ai/ha): D (60-74)
GR50, LEFSS [3]: >140 g ai/ha
GR80, LEFSS [3]: >140 g ai/ha
Visual Growth Reduction (%) 21 Days After Application, BRAPP ([4]; 35 g ai/ha): G (0-29)
Visual Growth Reduction (%) 21 Days After Application, BRAPP ([4]; 70 g ai/ha): G (0-29)
GR50, BRAPP [4]: >140 g ai/ha
GR80, BRAPP [4]: >140 g ai/ha
Visual Growth Reduction (%) 21 Days After Application, ORYSS ([5]; 35 g ai/ha): G (0-29)
Visual Growth Reduction (%) 21 Days After Application, ORYSS ([5]; 70 g ai/ha): G (0-29)
GR20, ORYSS [5]: >140 g ai/ha
Visual Growth Reduction (%) 21 Days After Application, CYPSS ([6]; 35 g ai/ha): B (85-94)
Visual Growth Reduction (%) 21 Days After Application, CYPSS ([6]; 70 g ai/ha): A (95-100)
GR50, CYPSS [6]: 3 g ai/ha
GR80, CYPSS [6]: 7 g ai/ha
Visual Growth Reduction (%) 21 Days After Application, ECHSS ([7]; 35 g ai/ha): F (30-44)
Visual Growth Reduction (%) 21 Days After Application, ECHSS ([7]; 70 g ai/ha): B (85-94)
GR50, ECHSS [7]: 16 g ai/ha
GR80, ECHSS [7]: >140 g ai/ha
